The CheMixHub viscosity set

Experiment: xn = mol fraction of the nth substance listed

CCCCCCCCO + CCCCCCCO
viscosity [mPa·s]
Conditions	293.15 K	298.15 K	308.15 K	318.15 K
101.33 kPa, x2 = 0.1671	8.821	7.374	–	–
101.33 kPa, x2 = 0.3071	8.507	7.128	–	–
101.33 kPa, x2 = 0.4819	8.113	6.847	–	–
101.33 kPa, x2 = 0.6319	7.827	6.588	–	–
101.33 kPa, x2 = 0.6868	7.688	6.471	–	–
101.33 kPa, x2 = 0.8784	7.302	6.161	–	–
101.8 kPa, x2 = 0.1105	–	7.442	5.362	3.936
101.8 kPa, x2 = 0.3246	–	7.122	5.139	3.78
101.8 kPa, x2 = 0.5285	–	6.742	4.884	3.607
101.8 kPa, x2 = 0.723	–	6.415	4.676	3.463
101.8 kPa, x2 = 0.9101	–	6.128	4.474	3.324

CC12CC3CC(C1)CC(C)(C3)C2 + CCCCCCCCCC
viscosity [mPa·s], 100 kPa
Conditions	x1 = 0.1028	x1 = 0.1981	x1 = 0.3019	x1 = 0.3998	x1 = 0.4996	x1 = 0.6018	x1 = 0.6968	x1 = 0.7904	x1 = 0.895
293.15 K	1.016	1.12	1.253	1.402	1.581	1.828	2.125	2.491	3.031
298.15 K	0.942	1.035	1.154	1.287	1.445	1.665	1.926	2.247	2.719
303.15 K	0.877	0.961	1.069	1.187	1.328	1.526	1.757	2.04	2.456
313.15 K	0.767	0.837	0.926	1.023	1.137	1.295	1.48	1.704	2.032
323.15 K	0.672	0.729	0.797	0.879	0.972	1.098	1.237	1.421	1.676

BrC(Br)Br + Nc1ccccc1Cl
viscosity [mPa·s], 101 kPa
Conditions	x1 = 0.1006	x1 = 0.1969	x1 = 0.3023	x1 = 0.3984	x1 = 0.5023	x1 = 0.5997	x1 = 0.6951	x1 = 0.8013	x1 = 0.8983
298.15 K	2.948	2.901	2.784	2.699	2.585	2.453	2.342	2.208	2.096
303.15 K	2.693	2.616	2.509	2.425	2.326	2.244	2.15	2.045	1.955
308.15 K	2.378	2.33	2.267	2.197	2.122	2.065	1.981	1.896	1.82
313.15 K	2.122	2.102	2.062	1.995	1.96	1.896	1.831	1.764	1.697

CC(=O)c1ccc(Cl)cc1 + CNC(C)=O
308.15 K, 101 kPa
Conditions	viscosity [mPa·s]
x1 = 0.0644	3.273
x1 = 0.1311	3.223
x1 = 0.2036	3.141
x1 = 0.2825	3.035
x1 = 0.3696	2.906
x1 = 0.4664	2.765
x1 = 0.5774	2.604
x1 = 0.7003	2.452
x1 = 0.8405	2.331

O=S(=O)([O-])c1ccccc1.[Na+] + O
viscosity [mPa·s], 101 kPa
Conditions	x1 = 9e-05	x1 = 0.00018	x1 = 0.0009	x1 = 0.0018	x1 = 0.00448	x1 = 0.00893	x1 = 0.0133	x1 = 0.0177
298.15 K	0.898	0.899	0.915	0.932	0.98	1.073	1.17	1.273
318.15 K	0.598	0.599	0.609	0.619	0.648	0.705	0.762	0.825

BrC(Br)Br + CCCCCO
viscosity [mPa·s], 101.3 kPa
Conditions	x1 = 0.097	x1 = 0.2	x1 = 0.296	x1 = 0.4	x1 = 0.499	x1 = 0.6	x1 = 0.701	x1 = 0.8	x1 = 0.9
298.15 K	3.255	3.006	2.729	2.477	2.275	2.114	1.997	1.91	1.873
303.15 K	2.831	2.621	2.399	2.2	2.039	1.928	1.822	1.762	1.742
308.15 K	2.452	2.296	2.113	1.954	1.829	1.741	1.67	1.631	1.628

CC(C)(C)N + O=C1CCCCC1
298.15 K, 101 kPa
Conditions	viscosity [mPa·s]
x2 = 0.0765	0.525
x2 = 0.157	0.607
x2 = 0.2421	0.702
x2 = 0.3319	0.787
x2 = 0.427	0.893
x2 = 0.5278	1.021
x2 = 0.6349	1.172
x2 = 0.7488	1.373
x2 = 0.8702	1.644

CCCCCCCCO + CCCCCCCCCCCC
298.15 K, 101 kPa
Conditions	viscosity [mPa·s]
x2 = 0.0554	6.58
x2 = 0.0999	6
x2 = 0.1554	5.3
x2 = 0.1998	4.78
x2 = 0.2555	4.16
x2 = 0.2998	3.71
x2 = 0.3554	3.19
x2 = 0.3998	2.81
x2 = 0.4554	2.39
x2 = 0.4999	2.1
x2 = 0.5555	1.78
x2 = 0.5998	1.57
x2 = 0.6555	1.35
x2 = 0.6998	1.22
x2 = 0.7554	1.1
x2 = 0.7998	1.04
x2 = 0.8555	1
x2 = 0.8999	1
x2 = 0.9555	1.04

CC(=O)c1ccc(Cl)cc1 + CCNc1ccccc1
303.15 K, 100 kPa
Conditions	viscosity [mPa·s]
x2 = 0.0798	2.295
x2 = 0.1568	2.242
x2 = 0.2321	2.191
x2 = 0.2989	2.147
x2 = 0.3614	2.106
x2 = 0.4467	2.051
x2 = 0.5163	2.008
x2 = 0.5841	1.967
x2 = 0.6601	1.922
x2 = 0.7245	1.885
x2 = 0.7874	1.85
x2 = 0.8487	1.818
x2 = 0.9042	1.788

CCC(C)(C)OC + CCCCCC
viscosity [mPa·s], 100 kPa
Conditions	x1 = 0.0498	x1 = 0.1632	x1 = 0.2584	x1 = 0.3742	x1 = 0.4276	x1 = 0.5464	x1 = 0.6121	x1 = 0.7457	x1 = 0.8625	x1 = 0.9488
293.15 K	0.317	0.325	0.332	0.343	0.349	0.363	0.372	0.391	0.412	0.429
303.15 K	0.287	0.293	0.3	0.31	0.315	0.33	0.339	0.362	0.384	0.407
313.15 K	0.254	0.259	0.266	0.277	0.282	0.296	0.304	0.323	0.343	0.358

CCOC(F)(F)C(F)(C(F)(F)F)C(F)(F)F + CCOC(F)(F)C(F)(F)C(F)(F)C(F)(F)F
100 kPa, x2 = 0.422
Conditions	viscosity [mPa·s]
298.16 K	0.6423
303.18 K	0.5987
